Source: US10758534B2 (Vertex Pharmaceuticals Incorporated, priority 2014, dated 2020)

Target: T1, F508del (Homo sapiens, UniProt P13569, DEL508-508)
T1 construct: expressed in transfected cells
Test: Protocol 1: membrane potential optical assay (FLIPR III, voltage sensing dye), identification of potentiator compounds
Assay type: cell-based
Details: Table 3, compounds of Table 1
Outline: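 NIH 3T3 fibroblasts stably expressing F508del were cultured at 27° C for 24 hrs for temperature correction, then treated with compounds or DMSO and loaded with a voltage-sensing redistribution dye. Forskolin added with a Cl⁻ gradient activated the channel; membrane-potential fluorescence on FLIPR III reported increased gating.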

T1 sequence (P13569 with tags, fused parts or gaps DEL508-508): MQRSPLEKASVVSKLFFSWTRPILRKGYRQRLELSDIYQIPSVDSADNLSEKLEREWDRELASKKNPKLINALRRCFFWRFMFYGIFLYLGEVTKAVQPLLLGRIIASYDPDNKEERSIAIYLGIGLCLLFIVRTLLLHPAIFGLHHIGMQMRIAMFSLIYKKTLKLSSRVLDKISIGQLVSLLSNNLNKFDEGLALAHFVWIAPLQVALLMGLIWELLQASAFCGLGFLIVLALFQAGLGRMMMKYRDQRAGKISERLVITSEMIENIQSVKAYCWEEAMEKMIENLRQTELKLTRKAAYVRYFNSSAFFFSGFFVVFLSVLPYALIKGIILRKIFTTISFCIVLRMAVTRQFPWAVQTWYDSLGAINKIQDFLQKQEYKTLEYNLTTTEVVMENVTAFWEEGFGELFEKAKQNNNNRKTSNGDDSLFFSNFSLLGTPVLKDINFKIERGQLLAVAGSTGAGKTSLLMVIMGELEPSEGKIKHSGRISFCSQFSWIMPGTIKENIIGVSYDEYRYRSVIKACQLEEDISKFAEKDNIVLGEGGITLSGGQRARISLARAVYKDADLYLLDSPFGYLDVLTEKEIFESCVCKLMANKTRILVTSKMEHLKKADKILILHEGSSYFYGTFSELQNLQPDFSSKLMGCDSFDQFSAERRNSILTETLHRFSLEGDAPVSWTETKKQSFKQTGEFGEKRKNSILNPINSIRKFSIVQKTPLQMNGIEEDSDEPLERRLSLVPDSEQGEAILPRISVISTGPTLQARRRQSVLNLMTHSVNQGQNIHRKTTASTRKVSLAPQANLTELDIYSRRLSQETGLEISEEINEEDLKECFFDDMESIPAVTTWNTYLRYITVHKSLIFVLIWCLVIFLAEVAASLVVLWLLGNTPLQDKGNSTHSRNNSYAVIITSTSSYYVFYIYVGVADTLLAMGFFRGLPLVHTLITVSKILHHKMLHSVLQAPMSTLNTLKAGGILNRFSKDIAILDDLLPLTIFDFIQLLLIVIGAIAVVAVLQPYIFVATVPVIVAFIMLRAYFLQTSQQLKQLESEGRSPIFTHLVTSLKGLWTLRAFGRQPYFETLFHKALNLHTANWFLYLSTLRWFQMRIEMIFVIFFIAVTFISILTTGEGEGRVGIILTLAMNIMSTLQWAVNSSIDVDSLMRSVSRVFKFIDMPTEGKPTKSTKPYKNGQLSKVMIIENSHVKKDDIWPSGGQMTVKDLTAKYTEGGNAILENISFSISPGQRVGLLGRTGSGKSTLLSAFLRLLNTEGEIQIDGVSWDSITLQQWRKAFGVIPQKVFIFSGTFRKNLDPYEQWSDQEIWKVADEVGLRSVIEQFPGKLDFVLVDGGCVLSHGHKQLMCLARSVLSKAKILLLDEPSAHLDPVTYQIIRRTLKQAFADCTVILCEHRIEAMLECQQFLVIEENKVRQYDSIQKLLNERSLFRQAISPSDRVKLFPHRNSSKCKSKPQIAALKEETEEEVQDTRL

EC30	Structure (SMILES)
+++ (“+++” means <3 uM)	C[C@@H]1CN(c2nc(CCC3CC3)ccc2C(=O)NS(=O)(=O)c2cccc(N)n2)C(C)(C)C1 [Compound 1677, N-[(6-amino-2-pyridyl)sulfonyl]-6-(2-cyclopropylethyl)-2-[(4S)-2,2,4-trimethylpyrrolidin-1-yl]pyridine-3-carboxamide]
+ (“+” means greater than 10 uM)	Cc1cccc(C)c1Cn1nc(-c2cnc(N(C)C)nc2)cc1C(=O)NS(=O)(=O)c1ccccc1 [Compound 1678, N-(benzenesulfonyl)-5-[2-(dimethylamino)pyrimidin-5-yl]-2-[(2,6-dimethylphenyl)methyl]pyrazole-3-carboxamide]
+++ (“+++” means <3 uM)	C[C@@H]1CC[C@H](C)N1c1nc(-c2ccc(OC(F)F)nc2)ccc1C(=O)NS(=O)(=O)c1cccc(N)n1 [Compound 1679, N-[(6-amino-2-pyridyl)sulfonyl]-6-[6-(difluoromethoxy)-3-pyridyl]-2-[(2S,5R)-2,5-dimethylpyrrolidin-1-yl]pyridine-3-carboxamide]
+++ (“+++” means <3 uM)	CC(C)CC/C=C/c1cc(C(=O)NS(=O)(=O)c2cccc(N)n2)c(N2C[C@@H](C)CC2(C)C)nc1C(C)(C)C [Compound 1682, N-[(6-amino-2-pyridyl)sulfonyl]-6-tert-butyl-5-[(E)-5-methylhex-1-enyl]-2-[(4S)-2,2,4-trimethylpyrrolidin-1-yl]pyridine-3-carboxamide]
+++ (“+++” means <3 uM)	CC(C)=Cc1ccc(C(=O)NS(=O)(=O)c2cccc(N)n2)c(N2C[C@@H](C)CC2(C)C)n1 [Compound 1683, N-[(6-amino-2-pyridyl)sulfonyl]-6-(2-methylprop-1-enyl)-2-[(4S)-2,2,4-trimethylpyrrolidin-1-yl]pyridine-3-carboxamide]
+++ (“+++” means <3 uM)	C[C@@H]1CN(c2nc(C3=CN(C(=O)OC(C)(C)C)CC3)ccc2C(=O)NS(=O)(=O)c2cccc(N)n2)C(C)(C)C1 [Compound 1684, tert-butyl 4-[5-[(6-amino-2-pyridyl)sulfonylcarbamoyl]-6-[(4S)-2,2,4-trimethylpyrrolidin-1-yl]-2-pyridyl]-2,3-dihydropyrrole-1-carboxylate]
+++ (“+++” means <3 uM)	Cc1cc(-c2ccc(C(=O)NS(=O)(=O)c3cccnc3N)c(N3C[C@@H](C)CC3(C)C)n2)cnc1OCCOC(C)C [Compound 1695, N-[(2-amino-3-pyridyl)sulfonyl]-6-[6-(2-isopropoxyethoxy)-5-methyl-3-pyridyl]-2-[(4S)-2,2,4-trimethylpyrrolidin-1-yl]pyridine-3-carboxamide]
+++ (“+++” means <3 uM)	CCOCCOCCOc1cc(C)cc(-c2ccc(C(=O)NS(=O)(=O)c3cccc(N)n3)c(N3C[C@@H](C)CC3(C)C)n2)n1 [Compound 1696, N-[(6-amino-2-pyridyl)sulfonyl]-6-[6-[2-(2-ethoxyethoxy)ethoxy]-4-methyl-2-pyridyl]-2-[(4S)-2,2,4-trimethylpyrrolidin-1-yl]pyridine-3-carboxamide]
+++ (“+++” means <3 uM)	C[C@@H]1CN(c2nc(C3=CCCCO3)ccc2C(=O)NS(=O)(=O)c2cccnc2N)C(C)(C)C1 [Compound 1699, N-[(2-amino-3-pyridyl)sulfonyl]-6-(3,4-dihydro-2H-pyran-6-yl)-2-[(4S)-2,2,4-trimethylpyrrolidin-1-yl]pyridine-3-carboxamide]
+++ (“+++” means <3 uM)	CCOCCOc1cc(C)cc(-c2ccc(C(=O)NS(=O)(=O)c3cccc(N)n3)c(N3C[C@@H](C)CC3(C)C)n2)n1 [Compound 1700, N-[(6-amino-2-pyridyl)sulfonyl]-6-[6-(2-ethoxyethoxy)-4-methyl-2-pyridyl]-2-[(4S)-2,2,4-trimethylpyrrolidin-1-yl]pyridine-3-carboxamide]
+++ (“+++” means <3 uM)	Cc1ccccc1-c1cnc(N2CC(C)CC2(C)C)c(C(=O)NS(=O)(=O)c2cccc(N)n2)c1 (stereo not shown) [Compound 1701, N-[(6-amino-2-pyridyl)sulfonyl]-5-(o-tolyl)-2-(2,2,4-trimethylpyrrolidin-1-yl)pyridine-3-carboxamide]
+++ (“+++” means <3 uM)	Cc1cc(-c2ccc(C(=O)NS(=O)(=O)c3cccnc3N)c(N3C[C@@H](C)CC3(C)C)n2)cnc1OC(C)C [Compound 1702, N-[(2-amino-3-pyridyl)sulfonyl]-6-(6-isopropoxy-5-methyl-3-pyridyl)-2-[(4S)-2,2,4-trimethylpyrrolidin-1-yl]pyridine-3-carboxamide]
+++ (“+++” means <3 uM)	Cc1cc(OCCOC(C)C)nc(-c2ccc(C(=O)NS(=O)(=O)c3cccc(N)n3)c(N3C[C@@H](C)CC3(C)C)n2)c1 [Compound 1703, N-[(6-amino-2-pyridyl)sulfonyl]-6-[6-(2-isopropoxyethoxy)-4-methyl-2-pyridyl]-2-[(4S)-2,2,4-trimethylpyrrolidin-1-yl]pyridine-3-carboxamide]
+++ (“+++” means <3 uM)	CC1CN(c2ncccc2C(=O)NS(=O)(=O)c2cccc(OCCc3ccc(F)cc3)n2)C(C)(C)C1 (stereo not shown) [Compound 1704, N—[[6-[2-(4-fluorophenyl)ethoxy]-2-pyridyl]sulfonyl]-2-(2,2,4-trimethylpyrrolidin-1-yl)pyridine-3-carboxamide]
+++ (“+++” means <3 uM)	COc1ccc(-c2ccc(C(=O)NS(=O)(=O)c3cccnc3N)c(N3C[C@@H](C)CC3(C)C)n2)c(OC)c1 [Compound 1705, N-[(2-amino-3-pyridyl)sulfonyl]-6-(2,4-dimethoxyphenyl)-2-[(4S)-2,2,4-trimethylpyrrolidin-1-yl]pyridine-3-carboxamide]
++ (“++” means between 3 uM and 10 uM)	C[C@@H]1CN(c2nc(-c3ccccc3CO)ccc2C(=O)NS(=O)(=O)c2cccnc2N)C(C)(C)C1 [Compound 1706, N-[(2-amino-3-pyridyl)sulfonyl]-6-[2-(hydroxymethyl)phenyl]-2-[(4S)-2,2,4-trimethylpyrrolidin-1-yl]pyridine-3-carboxamide]

Structure (SMILES)	EC30
CC(C)COc1cc(F)cc(-c2ccc(C(=O)NS(=O)(=O)c3cccc(N)n3)c(OCCC3CCCCO3)n2)c1 (stereo not shown) [Compound 1680, N-[(6-amino-2-pyridyl)sulfonyl]-6-(3-fluoro-5-isobutoxy-phenyl)-2-(2-tetrahydropyran-2-ylethoxy)pyridine-3-carboxamide]	+++ (“+++” means <3 uM)
CCOc1cccc2c1CN(Cc1cc(F)cc(OCC(C)C)c1)C2(C)C(=O)NS(=O)(=O)c1cccc(N)n1 (stereo not shown) [Compound 1681, N-[(6-amino-2-pyridyl)sulfonyl]-4-ethoxy-2-[(3-fluoro-5-isobutoxy-phenyl)methyl]-1-methyl-isoindoline-1-carboxamide]	+++ (“+++” means <3 uM)
CC(C)COc1cc(F)cc(-c2ccc(C(=O)NS(=O)(=O)c3cccc(N)n3)c(OCCC3CC3)n2)c1 [Compound 1685, N-[(6-amino-2-pyridyl)sulfonyl]-2-(2-cyclopropylethoxy)-6-(3-fluoro-5-isobutoxy-phenyl)pyridine-3-carboxamide]	+++ (“+++” means <3 uM)
CC(C)COc1cc(F)cc(-c2ccc(C(=O)NS(=O)(=O)c3cccc(N)n3)c(OCCCCc3ccccc3)n2)c1 [Compound 1686, N-[(6-amino-2-pyridyl)sulfonyl]-6-(3-fluoro-5-isobutoxy-phenyl)-2-(4-phenylbutoxy)pyridine-3-carboxamide]	+++ (“+++” means <3 uM)
CC(C)COc1cc(F)cc(-c2ccc(C(=O)NS(=O)(=O)c3cccc(N)n3)c(OCCCCc3ccncc3)n2)c1 [Compound 1687, N-[(6-amino-2-pyridyl)sulfonyl]-6-(3-fluoro-5-isobutoxy-phenyl)-2-[4-(4-pyridyl)butoxy]pyridine-3-carboxamide]	+++ (“+++” means <3 uM)
CC(C)COc1cc(F)cc(-c2ccc(C(=O)NS(=O)(=O)c3cccc(N)n3)c(OCCCCc3ccccn3)n2)c1 [Compound 1688, N-[(6-amino-2-pyridyl)sulfonyl]-6-(3-fluoro-5-isobutoxy-phenyl)-2-[4-(2-pyridyl)butoxy]pyridine-3-carboxamide]	+++ (“+++” means <3 uM)
CC(C)COc1cc(F)cc(-c2ccc(C(=O)NS(=O)(=O)c3cccc(N)n3)c(OCCC(C)c3ccccc3)n2)c1 (stereo not shown) [Compound 1689, N-[(6-amino-2-pyridyl)sulfonyl]-6-(3-fluoro-5-isobutoxy-phenyl)-2-(3-phenylbutoxy)pyridine-3-carboxamide]	+++ (“+++” means <3 uM)
CC(C)COc1cc(F)cc(-c2ccc(C(=O)NS(=O)(=O)c3cccc(N)n3)c(OCCCCc3cccnc3)n2)c1 [Compound 1690, N-[(6-amino-2-pyridyl)sulfonyl]-6-(3-fluoro-5-isobutoxy-phenyl)-2-[4-(3-pyridyl)butoxy]pyridine-3-carboxamide]	+++ (“+++” means <3 uM)
CC(C)COc1cc(F)cc(-c2ccc(C(=O)NS(=O)(=O)c3cccc(N)n3)c(OCCCc3cccnc3)n2)c1 [Compound 1691, N-[(6-amino-2-pyridyl)sulfonyl]-6-(3-fluoro-5-isobutoxy-phenyl)-2-[3-(3-pyridyl)propoxy]pyridine-3-carboxamide]	++ (“++” means between 3 uM and 10 uM)
CC(C)COc1cc(F)cc(-c2ccc(C(=O)NS(=O)(=O)c3cccc(N)n3)c(OCCCn3cccn3)n2)c1 [Compound 1692, N-[(6-amino-2-pyridyl)sulfonyl]-6-(3-fluoro-5-isobutoxy-phenyl)-2-(3-pyrazol-1-ylpropoxy)pyridine-3-carboxamide]	++ (“++” means between 3 uM and 10 uM)
CC(C)COc1cc(F)cc(-c2ccc(C(=O)NS(=O)(=O)c3cccc(N)n3)c(OCCCc3ccccn3)n2)c1 [Compound 1693, N-[(6-amino-2-pyridyl)sulfonyl]-6-(3-fluoro-5-isobutoxy-phenyl)-2-[3-(2-pyridyl)propoxy]pyridine-3-carboxamide]	+++ (“+++” means <3 uM)
CC(C)COc1cc(F)cc(-c2ccc(C(=O)NS(=O)(=O)c3cccc(N)n3)c(OCCCc3ccccc3)n2)c1 [Compound 1694, N-[(6-amino-2-pyridyl)sulfonyl]-6-(3-fluoro-5-isobutoxy-phenyl)-2-(3-phenylpropoxy)pyridine-3-carboxamide]	+++ (“+++” means <3 uM)
